[invAb] = inverted abasic unit; m = 2'-O-methyl; r = 2'-OH (RNA); f = 2'-fluoro
Columns and labels:
Assay type in all cases: cell-based
[1] = test system: ASK1 mRNA; experiment: ASK1 mRNA knock-down by siNA in mouse Hepa1-6 cells (RNAiMax transfection, Taqman RT-PCR); settings: 10 nM siNA, 24 hrs post-transfection, vs non-targeting control, GAPDH-normalized, mean ± S.D., two experiments
Experimental: Hepal-6 (murine; ATCC cat #CRL-1830): Cells were cultured at 37° C. in the presence of 5% CO2 and grown in Dulbecco's modified Eagle's medium (DMEM) with 4 mM L-glutamine adjusted to contain 1.5 g/L sodium bicarbonate and 4.5 g/L glucose and supplemented with 10% of fetal bovine serum, 100 μg/mL of streptomycin, and 100 U/mL penicillin.
(§1) Cells were plated in all wells of a tissue-culture treated, 96-well plate at a final count of 5000 cells/well (A549 cell line) and 3,500 cells/well (Hepal-6 cell line) in 100 μL of the appropriate culture media. The cells were cultured for 24 hours after plating at 37° C. in the presence of 5% CO2.
(§2) After 24 hours, complexes containing siNA and RNAiMax were created as follows: A solution of RNAiMax diluted 33-fold in OPTI-MEM was prepared. In parallel, solutions of the siNAs for testing were prepared to a final concentration of 120 nM in OPTI-MEM. After incubation of RNAiMax/OPTI-MEM solution at room temperature for 5 min, an equal volume of the siRNA solution and the RNAiMax solution were added together for each of the siNAs.
(§3) This solution was incubated at room temperature for 20 minutes. After incubation, 20 uL of the solution was added to each of the relevant wells. The final concentration of siNA in each well was 10 nM and the final volume of RNAiMax in each well was 0.3 ul.
(§4) The time of incubation with the RNAiMax-siNA complexes was 24 hours and there was no change in media between transfection and harvesting, unless otherwise indicated.
(§5) RNA was extracted from a 96-well plate using the TaqMan® Gene Expression Cells-to-CT™ Kit (Cat #4399002) with a modified protocol. Briefly, a 60 uL (1 plate) or 110 uL (2 plates) of the Lysis Solution with DNase I was dispensed into each well of the Lysis Buffer Plate (twin.tec full skirt plate). The lysis buffer and stop plates were stored at 4° C. until the cells were washed.
(§6) The plate was spun at 1100 rpm for 5 minutes. The culture medium was aspirated and discarded from the wells of the culture plate. The lysis was performed automatically using a BioMek FX instrument and method. After the Biomek method was completed, the lysis plate was incubated for 2 min. at room temperature. The lysis plate can be stored for 2 hours at 4° C., or at −20° C. or −80° C. for two months.
(§7) Each well of the reverse transcription plate required 10 uL of 2× reverse transcriptase Buffer, 1 uL of 20× reverse transcription enzyme and 2 uL of nuclease-free water. The reverse transcription master mix was prepared by mixing 2× reverse transcription buffer, 20× reverse transcription enzyme mix, and nuclease-free water. 13 uL of the reverse transcription master mix was dispensed into each well of the reverse transcription plate (semi-skirted). A separate reverse transcription plate was prepared for each cell plate. The plate was loaded onto a Biomek NX or Biomek FX Dual-96 and the Biomek method was run. The program is programmed to automatically added 7 uL of lysate from the cell lysis procedure described above into each well of the reverse transcription plate. The plate is sealed and spun on a centrifuge (1000 rpm for 30 seconds) to settle the contents to the bottom of the reverse transcription plate. The plate is placed in a thermocycler at 37° C. for 60 min, 95° C. for 5 min, and 4° C. until the plate is removed from the thermocycler. Upon removal, if not used immediately, the plate was frozen at −20° C.
(§8) A series of probes and primers were used to detect the various mRNA transcripts of the genes of ASK1, ASK2, and GAPDH in human cell lines and ASK1 and GAPDH in mouse cell lines. All Taqman probes and primers for the experiments were supplied as pre-validated sets by ABI (see Table 2).
(§9) The assays were performed on an ABI 7900 instrument, according to the manufacturer's instructions. A TaqMan Gene Expression Master Mix (provided in the Cells-to-CT™, Applied Biosystems, Cat #4399002) was used. […]

[2] = test system: ASK1 mRNA; experiment: ASK1 mRNA knock-down by siNA in human A549 cells (RNAiMax transfection, Taqman RT-PCR); settings: for % KD Human: 10 nM siNA, 24 hrs post-transfection, vs non-targeting control, GAPDH-normalized, mean ± S.D.; for % KD Human / % KD ASK-1 10 nM: two experiments; for % KD ASK-1 mRNA at 10 nM: mean ± S.D. (Table 5); for % KD ASK-1 10 nM: mean ± standard deviation (Table 6)
Experimental: A549 (human; ATCC cat #CCL-185): Cells were cultured at 37° C. in the presence of 5% CO2 and grown in Ham's F12K medium with 2 mM L-glutamine adjusted to contain 1.5 g/L sodium bicarbonate and supplemented with fetal bovine serum at a final concentration of 10%, 100 μg/mL of streptomycin, and 100 U/mL penicillin.
as §1, §2, §3, §4, §5, §6, §7, §8, §9

[3] = test system: ASK1 mRNA; experiment: as above; settings: 12 concentrations 0.083 fM to 30 nM, mean ± S.D.
[4] = test system: mRNA transcript of human ASK2; experiment: ASK2 specificity screen: effect of ASK1 siNAs on human ASK2 mRNA in A549 cells; settings: 1 nM siNA, three independent experiments, mean ± standard deviation
Experimental: A549 cells were plated in all wells of a tissue-culture treated, 96-well plate at a final count of 5,000 cells/well in 100 μL of appropriate culture media. Cells were cultured for 24 hours after plating at 37° C. in the presence of 5% CO2.
as §2, with “follows.” for “follows:”, “siRNAs” for “siNAs”, “12” for “120”, “siNA” for “siRNA”, “siNAs. […] This solution was incubated at room temperature for 20 minutes. After incubation, 20 uL of the solution was added to each of the relevant wells. The final concentration of siNA in each well was 1 nM and the final volume of RNAiMax in each well was 0.3 uL. The time of incubation with the RNAiMax-siNA complexes was 24 hours.” for “siNAs.”
as §5, §6, §7, §8
The assays were performed on an ABI 7900 instrument, according to the manufacturer's instructions. A TaqMan Gene Expression Master Mix (provided in the Cells-to-CT™, Applied Biosystems, Cat #4399002) was used. The PCR reactions were carried out at 50° C. for 2 min, 95° C. for 10 min followed by 40 cycles at 95° C. for 15 secs and 60° C. for 1 min.
The expression level of the gene of interest and % knock-down was calculated using Comparative Ct method:
ΔΔCt=ΔCt(Target siRNA)−ΔCt(NTC)
Relative expression level=2^−ΔΔCt
The non-targeting control siRNA was, unless otherwise indicated, chosen as the value against which to calculate the % knock-down, because it is the most relevant control.
The specificity of these siNAs was also assessed. […]

Row | Substance | % KD Mouse [1] [%] | % KD Human [2] [%] | % KD ASK-1 mRNA at 10 nM [2] [%] | % KD ASK-1 10 nM [2] [%] | IC50 [3] [pM] | % KD ASK-2 1 nM [4] [%]
1 | 25376-DC: siNA duplex, sense B GcAccAGAAAuAAuAGAuA TTB, antisense UAUcuAuuAuuucuGGuGcUU (SEQ ID NO: 33/34), human ASK1 target site 2900 (sense GCACCAGAAAUAAUAGAUATT; antisense UAUCUAUUAUUUCUGGUGCUU; chemistry not fully specified) | 14 ± 18 | 89 ± 1 | 89 ± 1 | 89 ± 1 | 14 ± 4 | 5 ± 12
2 | 25379-DC: siNA duplex, sense B cGAuGGAAAuucuAAAAAu TTB, antisense AUUuuuAGAAuuuccAucGUU (SEQ ID NO: 39/40), human ASK1 target site 4507 (sense CGAUGGAAAUUCUAAAAAUTT; antisense AUUUUUAGAAUUUCCAUCGUU; chemistry not fully specified) | 4 ± 3 | 92 ± 0 | 92 ± 0 | 92 ± 0 | 9 ± 2 | −6 ± 4
3 | 25385-DC: siNA duplex, sense B GGAAGGcuAucAuuGAcuu TTB, antisense AAGucAAuGAuAGccuuccUU (SEQ ID NO: 51/52), human ASK1 target site 4449 (sense GGAAGGCUAUCAUUGACUUTT; antisense AAGUCAAUGAUAGCCUUCCUU; chemistry not fully specified) | 75 ± 15 | 90 ± 0 | 90 ± 0 | 90 ± 0 | 10 ± 3 | 2 ± 11
4 | 25387-DC: siNA duplex, sense B cAccAGAAAuAAuAGAuAA TTB, antisense UUAucuAuuAuuucuGGuGUU (SEQ ID NO: 55/56), human ASK1 target site 2901 (sense CACCAGAAAUAAUAGAUAATT; antisense UUAUCUAUUAUUUCUGGUGUU; chemistry not fully specified) | −17 ± 11 | 87 ± 2 | 87 ± 2 | 87 ± 2 | 20 ± 3 | 4 ± 11
5 | 25389-DC: siNA duplex, sense B GAGAcAAuuuuAAuAuAuA TTB, antisense UAUAuAuuAAAAuuGucucUU (SEQ ID NO: 59/60), human ASK1 target site 1907 (sense GAGACAAUUUUAAUAUAUATT; antisense UAUAUAUUAAAAUUGUCUCUU; chemistry not fully specified) | −4 ± 4 | 93 ± 4 | 93 ± 4 | 93 ± 4 | 3 ± 0.5 | 5 ± 4
6 | 25396-DC: siNA duplex, sense B cAAGcAAAAAGAAAAAGAc TTB, antisense GUCuuuuucuuuuuGcuuGUU (SEQ ID NO: 73/74), human ASK1 target site 3183 (sense CAAGCAAAAAGAAAAAGACTT; antisense GUCUUUUUCUUUUUGCUUGUU; chemistry not fully specified) | 75 ± 1 | 90 ± 1 | – | – | – | –
7 | 25397-DC: siNA duplex, sense B AGccAGuAcuuccGGGAAu TTB, antisense AUUcccGGAAGuAcuGGcuUU (SEQ ID NO: 75/76), human ASK1 target site 1166 (sense AGCCAGUACUUCCGGGAAUTT; antisense AUUCCCGGAAGUACUGGCUUU; chemistry not fully specified) | 78 ± 7 | 60 ± 0 | – | – | – | –
8 | 25398-DC: siNA duplex, sense B GuGAcAGcAGcuucAuGAA TTB, antisense UUCAuGAAGcuGcuGucAcUU (SEQ ID NO: 77/78), human ASK1 target site 1038 (sense GUGACAGCAGCUUCAUGAATT; antisense UUCAUGAAGCUGCUGUCACUU; sense: DNA at AGT, 2'-fluoro at CU, [invAb] at 5' end, 3' end, backbone not given here; antisense: sugars from the 5' end rrrmfmmmmffmffmffmfmm, backbone not given here) | 51 ± 2 | 38 ± 6 | – | – | – | –
9 | 25400-DC: siNA duplex, sense B ccAcuGAccGAAAAAucAu TTB, antisense AUGAuuuuucGGucAGuGGUU (SEQ ID NO: 81/82), human ASK1 target site 3660 (sense CCACUGACCGAAAAAUCAUTT; antisense AUGAUUUUUCGGUCAGUGGUU; chemistry not fully specified) | 74 ± 1 | 86 ± 4 | – | – | – | –
10 | 25401-DC: siNA duplex, sense B uccuGGucGAGGccAcAAA TTB, antisense UUUGuGGccucGAccAGGAUU (SEQ ID NO: 83/84), human ASK1 target site 1995 (sense UCCUGGUCGAGGCCACAAATT; antisense UUUGUGGCCUCGACCAGGAUU; sense: DNA at AGT, 2'-fluoro at CU, [invAb] at 5' end, 3' end, backbone not given here; antisense: sugars from the 5' end rrrmfmmffffmmffmmmmmm, backbone not given here) | 21 ± 0 | 10 ± 16 | – | – | – | –

Source: patent publication US20120010272A1, “RNA Interference Mediated Inhibition of Apoptosis Signal-Regulating Kinase 1 (ASK1) Gene Expression Using Short Interfering Nucleic Acid (siNA)” (Merck Sharp & Dohme Corp., priority 2009, published 2012)
